Experimental data reported in patent US9109001B2, “3′,5′-cyclic phosphoramidate prodrugs for HCV infection” (priority 2012, dated 2015).
Like-named read-outs stand apart in the source and are kept apart here.

Columns and labels:
[1] = Stability in fresh human whole blood; assay type: in vitro ADME; settings: 0.5 μM, percent unchanged test compound
Procedure: Stability in Fresh Whole Blood: Stability of test compounds were determined in fresh human whole blood with K2EDTA as the anticoagulant (stored refrigerated at 2-8° C. and used within 7 days of receipt). The experiment was conducted with three replicates for each time point. Whole blood, pre-incubated at 37° C. for 10-15 minutes, was fortified with a solution of test compound for a final concentration of 0.5 μM and mixed for 30 sec. At intervals (0, 0.5, 1 and 2 hr), three 50-μL aliquots were combined with 200 μL (each) of an ice-cold solution of the internal standard (carbutamide 500 ng/mL in acetonitrile). The samples were vortexed for 30 sec and then centrifuged at 16,100 g for 5 min. The supernatant was analyzed by LC-MS/MS. The MS peak area ratio of the test compound versus the internal standard was calculated and percent unchanged test compound was calculated for each time point using this ratio.

[2] = Stability in simulated intestinal fluid; assay type: in vitro ADME; settings: 100 μM, 2 hours at 37° C.; percent of peak area at time zero
Procedure: (§1) Stability in Simulated Gastric and Intestinal Fluids: Simulated gastric and intestinal fluids containing pepsin and pancreatin respectively were prepared according to the U.S. Pharmacopoeia USP291 procedure (www.pharmacopeia.cn/v29240/usp29nf24s0_ris1s126.html). Test compound (final concentration 100 μM) was incubated in duplicate in the appropriate fluid for 2 hours at 37° C. The samples were quenched with 200 μl cold acetonitrile, vortexed for 30 seconds and then centrifuged at 16,100 g for 10 min. The supernatants were analyzed by HPLC on a C-18 column with UV detection at 252 nm. The time 0 samples were prepared by adding SGF or SIF fluid to the quenching solvent followed by the test compound. Stability of the compound was determined by peak area the test compound after incubation and calculated as percent of the peak area observed at time zero.

[3] = Plasma and liver pharmacokinetics following a single oral dose in CD-1 mice; assay type: in vivo; settings: CD-1 male mice; for Ms Liver 2′-MeGTP AUC (pmol · hr/g at 1 μmol/kg): single oral dose 25 mg/kg in PEG 200, liver 2′-MeGTP; for Ms Plasma 2′-MeG AUC (pmol · hr/mL at 1 μmol/kg) / Ms Plasma 2′-MeG Cmax (pmol/mL at 1 μmol/kg): single oral dose 25 mg/kg in PEG 200, plasma 2′-MeG
Procedure: Plasma samples were analyzed for 2′-methylguanosine (2′-MeG) by LC-MS/MS. The internal standard (IS) was 2′-MeG-D3. For protein precipitation and extraction, each plasma sample (50 μL) was treated with 500 μL of 0.2% formic acid in acetonitrile and 20 μL of the internal standard working solution. After vortexing and centrifugation, 500 μL of the sample extracts were transferred to a new plate, dried under N2 at ˜28° C. and reconstituted with 75 μL of 0.2% FA in water. The extracts were chromatographed on an Aquasil C18 column using a gradient system of 0.2% formic acid in water and acetonitrile. The analytes were detected and quantified by tandem mass spectrometry in positive ion mode on an MDS Sciex API5000 equipped with a Turbo Ionspray® interface. The calibration range was 0.500 (LLOQ) to 200 ng/mL in mouse plasma. The corresponding range for molar units is 1.68 to 673 pmol/mL.
Liver samples were analyzed for the active species 2′-methylguanosine triphosphate (2′-MeGTP) by LC-MS/MS. […] Internal standard solution was added to the homogenate followed by neutralization with 20% ammonium hydroxide solution and addition of 500 μL 1% formic acid. The tissue samples were extracted by weak anion exchange solid phase extraction (SPE). Post extraction, the eluates were evaporated under nitrogen, followed by reconstitution before injection onto the LC-MS/MS system. […] The calibration range was 10 to 10000 pmol/mL in mouse liver homogenate (50 to 50000 pmol/g of mouse liver).

[4] = Stability in human liver S9 fraction; assay type: in vitro ADME; settings: 10 μM, 1.0 mg/mL protein, NADPH, 60 min; percent unchanged
Procedure: (§2) Stability in Liver and Intestinal Subcellular Fractions: Stability of test compounds were determined in subcellular fractions (microsomes and S9) of human liver and intestine in duplicate for each matrix. Pooled liver and intestinal microsomal, intestinal and liver S9 proteins (1.0 mg/mL), suspended in incubation buffer (100 mM potassium phosphate, pH 7.4, 5 mM MgCl2, and 0.1 mM EDTA), were preincubated for 5 min at 37° C. with 10 μM of a test compound from a 10 mM stock solution in DMSO (final DMSO concentration was 0.1%); the reaction was initiated by the addition of NADPH (3 mM final concentration). At specific times (0 and 60 min), 0.1 mL samples were taken and the reaction terminated by the addition of 4 volumes of stop solution (acetonitrile with 500 ng/mL carbutamide as an internal standard). The samples were vortexed for 30 sec and then centrifuged at 16,000 g for 10 min. 100 μL of supernatants were transferred to 96 deep-well plates preloaded with 100 μL distilled water and analyzed after mixing by LC-MS/MS. The MS peak area ratio of the test compound versus the internal standard was calculated and percent unchanged test compound over 60 minutes was calculated using this ratio.

[5] = Stability in simulated gastric fluid; assay type: in vitro ADME; settings: 100 μM, 2 hours at 37° C.; percent of peak area at time zero
Procedure: as §1

[6] = Stability in human intestinal S9 (HIS9); assay type: in vitro ADME; settings: 10 μM, 1.0 mg/mL protein, NADPH, 60 min; percent unchanged
Procedure: as §2

[7] = test system: HCV genotype 1b replicon; assay: HCV Replicon Assay; assay type: cell-based; settings: Zluc (Huh-7-derived) cells, HCV genotype 1b replicon, luciferase reporter, 72 hours, read-out: HCV Replicon EC50
Outline: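 Zluc Huh-7 cells with HCV genotype 1b replicon and luciferase reporter treated with 5-fold dilutions (100 μM to 0.0000512 μM final) in duplicate, or at 1 and 10 μM. Luminescence read with ONE-glo; EC50 from dose-response fits, or % inhibition at the fixed concentrations.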

Compound | Stability WB_Human (37° C.; 2 hr) [1] | Stability SIF [2] | Ms Liver 2′-MeGTP AUC (pmol · hr/g at 1 μmol/kg) [3] | Ms Plasma 2′-MeG AUC (pmol · hr/mL at 1 μmol/kg) [3] | Ms Plasma 2′-MeG Cmax (pmol/mL at 1 μmol/kg) [3] | Stability HLS9 (1 hr) [4] | Stability SGF [5] | Stability HIS9 (1 hr) [6] | EC50 ([7]; Hepatitis C virus, 72 h) | EC50 [7]
CCOc1nc(N)nc2c1ncn2[C@@H]1O[C@@H]2COP(=O)(N[C@@H](C)C(=O)OC(C)C)O[C@H]2[C@@]1(C)F (single isomer, unassigned) [Compound 1 Diastereomer 1] | 87% | 83% | 2400 pmol · hr/g at 1 μmol/kg | 110 pmol · hr/mL at 1 μmol/kg | 14 pmol/mL at 1 μmol/kg | 51% | 87% | 84% | 250 to 1000 nM | 
CCOc1nc(N)nc2c1ncn2[C@@H]1O[C@@H]2COP(=O)(N[C@@H](C)C(=O)OC(C)C)O[C@H]2[C@@]1(C)F (single isomer, unassigned) [Compound 1 Diastereomer 2] | 67% | 2% | 810 pmol · hr/g at 1 μmol/kg | 92 pmol · hr/mL at 1 μmol/kg | 9.8 pmol/mL at 1 μmol/kg | 66% | 83% | 96% |  | < 250 nM
